Assay results: US20240368191A1, “HETEROCYCLIC COMPOUNDS AND USES THEREOF” (Kumquat Biosciences Inc., priority 2021, published 2024)

Target: T1, KRAS G12S 1-169 (His-tagged, GDP-loaded) (Homo sapiens, UniProt P01116, G12S)
T1 construct: His -tagged GDP-loaded G12S 1-169; made in house; host or cells: E. coli, e.g. BL21 (DE3)
Experiment: Covalent modification of KRAS protein by intact-protein LC-MS
Type: binding
Details: 24-hour treatment
Procedure, shortened: (§1)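 Percent modification is derived from deconvoluted intact-protein LC-ESI-MS peak intensities of adducted versus unmodified KRAS. GDP-loaded His-tagged KRAS 1-169 (~2 μM, HEPES buffer at physiological conditions) was exposed to compound for 24 hrs at room temperature, then quenched with formic acid before C4 reversed-phase separation.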

T1 sequence (P01116 1-169 isoform P01116-2 G12S): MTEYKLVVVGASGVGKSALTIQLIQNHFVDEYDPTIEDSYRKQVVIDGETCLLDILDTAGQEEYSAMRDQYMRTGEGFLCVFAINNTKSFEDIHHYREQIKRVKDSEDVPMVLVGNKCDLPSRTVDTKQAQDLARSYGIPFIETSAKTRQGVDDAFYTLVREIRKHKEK

**Q.** With `N#Cc1cn(C(=O)N2C3CCC2CN(c2nc(OC[C@@]45CCCN4C[C@H](F)C5)nc4c(F)c(-c5ccc(F)c6sc(N)nc56)c(Cl)cc24)C3)cn1` [Compound A123, 1-(3-(7-(2-amino-7-fluorobenzo-[d]thiazol-4-yl)-6-chloro-8-fluoro-2-(((2R,7aS)-2-fluoro-tetrahydro-1H-pyrrolizin-7a(5H)-yl)methoxy)quinazolin-4-yl)-3,8-diazabicyclo[3.2.1]-octane-8-carbonyl)-1H-imid-azole-4-carbonitrile] as the compound, how does the “K-Ras12S engagement after 24-hour treatment” value read?
**A.** Its value is “++ (++: indicates between 1% to 20% labelling)”.

Same assay, conditions: KRAS G12S, 24 hr

**Q.** Which “% G12S Modification at 24 hr.” value does the source give for `N#Cc1cn(C(=O)N2C3CCC2CN(c2nc(OC[C@@]45CCCN4C[C@H](F)C5)nc4c(F)c(-c5ccc(F)c6sc(N)nc56)c(Cl)cc24)C3)cn1` [Compound A123, 1-(3-(7-(2-amino-7-fluorobenzo-[d]thiazol-4-yl)-6-chloro-8-fluoro-2-(((2R,7aS)-2-fluoro-tetrahydro-1H-pyrrolizin-7a(5H)-yl)methoxy)quinazolin-4-yl)-3,8-diazabicyclo[3.2.1]-octane-8-carbonyl)-1H-imid-azole-4-carbonitrile] here?
**A.** The value was “++ (++ indicates between about 1%-20% labelling)”.

**Q.** With `N#Cc1nccn1C(=O)N1C2CCC1CN(c1nc(OC[C@@]34CCCN3C[C@H](F)C4)nc3c(F)c(-c4ccc(F)c5sc(N)nc45)c(Cl)cc13)C2` [Compound A170, 1-(3-(7-(2-amino-7-fluorobenzo-[d]thiazol-4-yl)-6-chloro-8-fluoro-2-(((2R,7aS)-2-fluoro-tetrahydro-1H-pyrrolizin-7a(5H)-yl)methoxy)quinazolin-4-yl)-3,8-diazabicyclo[3.2.1]-octane-8-carbonyl)-1H-imid-azole-2-carbonitrile] as the compound, how does the “% G12S Modification at 24 hr.” value read?
**A.** Its value is “++ (++ indicates between about 1%-20% labelling)”.

**Q.** With `C#Cc1c(F)ccc2cc(O)cc(-c3ncc4c(N5CC6CCC(C5)N6C(=O)n5cnc(C#N)c5)nc(OC[C@@]56CCCN5C[C@H](F)C6)nc4c3F)c12` [Compound A255, 1-(3-(7-(8-ethynyl-7-fluoro-3-hydroxynaphthalen-1-yl)-8-fluoro-2-(((2R,7aS)-2-fluoro-tetrahydro-1H-pyrrolizin-7a(5H)-yl)methoxy)pyrido[4,3-d]pyrimidin-4-yl)-3,8-diaza-bicyclo[3.2.1]octane-8-carbon-yl)-1H-imidazole-4-carbonitrile] as the compound, how does the “% G12S Modification at 24 hr.” value read?
**A.** Its value is “++ (++ indicates between about 1%-20% labelling)”.

Target: T2, KRAS G12D 1-169 (His-tagged, GDP-loaded) (Homo sapiens, UniProt P01116, G12D)
T2 construct: His -tagged GDP-loaded G12D 1-169; made in house; host or cells: E. coli, e.g. BL21 (DE3)
Experiment: as above
Type: binding
Details: comparable or same conditions as K-Ras G12S
Procedure, shortened: as §1

T2 sequence (P01116 1-169 isoform P01116-2 G12D): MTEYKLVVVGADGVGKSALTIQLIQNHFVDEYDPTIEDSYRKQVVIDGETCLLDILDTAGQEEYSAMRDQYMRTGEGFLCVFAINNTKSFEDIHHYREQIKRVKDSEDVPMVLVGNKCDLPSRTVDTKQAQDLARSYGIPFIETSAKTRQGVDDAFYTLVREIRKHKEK

**Q.** With `N#Cc1c(N)sc2c(F)ccc(-c3ncc4c(N5CC6CCC(C5)N6C(=O)n5ccnc5C#N)nc(OC[C@@]56CCCN5C[C@H](F)C6)nc4c3F)c12` [Compound A165, 1-(3-(7-(2-amino-3-cyano-7-fluorobenzo[b]thiophen-4-yl)-8-fluoro-2-(((2R,7aS)-2-fluoro-tetrahydro-1H-pyrrolizin-7a(5H)-yl)methoxy)pyrido[4,3-d]pyrimidin-4-yl)-3,8-diaza-bicyclo[3.2.1]octane-8-carbon-yl)-1H-imidazole-2-carbonitrile] as the compound, how does the “covalent labeling of K-Ras G12D” value read?
**A.** The value was “essentially no detectable labeling”.

**Q.** Which “covalent labeling of K-Ras G12D” value does the source give for `C#Cc1c(F)ccc2cc(O)cc(-c3ncc4c(N5CC6CCC(C5)N6C(=O)n5cnc(C#N)c5)nc(OC[C@@]56CCCN5C[C@H](F)C6)nc4c3F)c12` [Compound A255, 1-(3-(7-(8-ethynyl-7-fluoro-3-hydroxynaphthalen-1-yl)-8-fluoro-2-(((2R,7aS)-2-fluoro-tetrahydro-1H-pyrrolizin-7a(5H)-yl)methoxy)pyrido[4,3-d]pyrimidin-4-yl)-3,8-diaza-bicyclo[3.2.1]octane-8-carbon-yl)-1H-imidazole-4-carbonitrile] here?
**A.** The value was “essentially no detectable labeling”.

Test system: not listed separately
Experiment: in vitro
Details: microsomes, pH 7.4
Description: The metabolic stability of a test compound is assayed at 37° C. using pooled liver microsomes (mouse or human liver microsomes). An aliquot of 10 μL of 50 μM test compound is mixed with 490 μL of 0.611 mg/mL liver microsomes, then 50 μL of the mixtures are dispensed to the 96 well tubes and warmed at 37° C. for 10 minutes. The reactions are initiated by adding 50 μL of the pre-warmed NADPH regeneration system solution (add 1.2 μL solution, 240 μl solution B, mix with 10.56 ml KPBS) and then incubated at 37° C. The final incubation solution contains 100 mM potassium phosphate (pH 7.4), 1.3 mM NADP+, 3.3 mM glucose 6-phosphate, 0.4 Unit/mL of glucose 6-phosphate dehydrogenase, 3.3 mM magnesium chloride, 0.3 mg/mL liver microsomes and 0.5 μM test article. After 0, 15, 30 and 60 minutes in a shaking incubator, the reactions are terminated by adding 100 μL of acetonitrile containing 200 nM buspirone as an internal standard. All incubations are conducted in duplicate. […] Samples are then centrifuged at 3500 rpm for 10 minutes (4° C.) using Sorvall Legend XRT Centrifuge (Thermo Scientific, GE). Supernatants (40 μL) are transferred into clean 96-deep well plates. Each well is added with 160 μL of ultrapure water (Milli-Q, Millipore Corporation) with 0.1% (v/v) formic acid (Fisher Chemical), mixed thoroughly and subjected to LC/MS/MS analysis in MRM positive ionization mode.
All the samples are measured using a mass spectrometer (QTrap 5500 quadrupole/ion trap) coupled with a Shimadzu HPLC system. The HPLC system consisted of a Shimadzu series degasser, binary quaternary gradient pumps, column heater coupled to an autosampler, and a Phenomenex Gemini-NX, C18, 3.0 μm or Phenomenex Lunar, C8, 5.0 μM HPLC column (Phenomenex, Torrance, CA), and eluted with a mobile phase gradient consisting of Solution A (0.1% formic acid water) and Solution B (0.1% formic acid acetonitrile). The column temperature is maintained at 40° C. All the analytes are detected with positive-mode electrospray ionization (ES+).
The half-life for the metabolic degradation of the test compound is calculated by plotting the time-course disappearance of the test compound during the incubation with liver microsomes. Each plot is fitted to a first-order equation for the elimination of the test compound (% remaining compound) versus time using non-linear regression (Equation 1).
where Ct is the mean relative substrate concentration at time t and C0 is the initial concentration (0.5 μM) at time 0. Note that the area ratio of the substrate peak to an internal standard peak is proportional to the analyte concentration and is used for regression analysis to derive a value of k.

**Q.** With `C#Cc1c(F)ccc2cc(O)cc(-c3ncc4c(N5CC6CCC(C5)N6C(=O)Nc5ncccn5)nc(OC[C@@]56CCCN5C[C@H](F)C6)nc4c3F)c12` [Compound A131, 3-(7-(8-ethynyl-7-fluoro-3-hydroxynaphthalen-1-yl)-8-fluoro-2-(((2R,7aS)-2-fluoro-tetrahydro-1H-pyrrolizin-7a(5H)-yl)methoxy)pyrido[4,3-d]pyrimidin-4-yl)-N-(pyrimidin-2-yl)-3,8-diazabicyclo[3.2.1]-octane-8-carboxamide] as the compound, how does the half-life at 0.5 μM read?
**A.** Its half-life at 0.5 μM is over 10 min.

**Q.** Which half-life at 0.5 μM does the source give for `C#Cc1c(F)ccc2cc(O)cc(-c3ncc4c(N5CC6CCC(C5)N6C(=O)n5cc(C#N)cn5)nc(OC[C@@]56CCCN5C[C@H](F)C6)nc4c3F)c12` [Compound A143, 1-(3-(7-(8-ethynyl-7-fluoro-3-hydroxynaphthalen-1-yl)-8-fluoro-2-(((2R,7aS)-2-fluoro-tetrahydro-1H-pyrrolizin-7a(5H)-yl)methoxy)pyrido[4,3-d]pyrimidin-4-yl)-3,8-diaza-bicyclo[3.2.1]octane-8-carbon-yl)-1H-pyrazole-4-carbonitrile] here?
**A.** The half-life at 0.5 μM was over 10 min.

**Q.** Which half-life at 0.5 μM does the source give for `C#Cc1c(F)ccc2cc(O)cc(-c3ncc4c(N5CC6CCC(C5)N6C(=O)n5ccnc5)nc(OC[C@@]56CCCN5C[C@H](F)C6)nc4c3F)c12` [Compound A163, (3-(7-(8-ethynyl-7-fluoro-3-hydroxynaphthalen-1-yl)-8-fluoro-2-(((2R,7aS)-2-fluoro-tetrahydro-1H-pyrrolizin-7a(5H)-yl)methoxy)pyrido[4,3-d]pyrimidin-4-yl)-3,8-diaza-bicyclo[3.2.1]octan-8-yl)(1H-imidazol-1-yl)methanone] here?
**A.** The half-life at 0.5 μM was over 10 min.

**Q.** Which half-life at 0.5 μM does the source give for `N#Cc1c(N)sc2c(F)ccc(-c3ncc4c(N5CC6CCC(C5)N6C(=O)n5ccnc5C#N)nc(OC[C@@]56CCCN5C[C@H](F)C6)nc4c3F)c12` [Compound A165, 1-(3-(7-(2-amino-3-cyano-7-fluorobenzo[b]thiophen-4-yl)-8-fluoro-2-(((2R,7aS)-2-fluoro-tetrahydro-1H-pyrrolizin-7a(5H)-yl)methoxy)pyrido[4,3-d]pyrimidin-4-yl)-3,8-diaza-bicyclo[3.2.1]octane-8-carbon-yl)-1H-imidazole-2-carbonitrile] here?
**A.** Its half-life at 0.5 μM is over 10 min.

**Q.** With `N#Cc1c(N)sc2c(F)ccc(-c3ncc4c(N5CC6CCC(C5)N6C(=O)n5cncn5)nc(OC[C@@]56CCCN5C[C@H](F)C6)nc4c3F)c12` [Compound A206, 4-(4-(8-(1H-1,2,4-triazole-1-carbonyl)-3,8-diazabicyclo-[3.2.1]octan-3-yl)-8-fluoro-2-(((2R,7aS)-2-fluorotetrahydro-1H-pyrrolizin-7a(5H)-yl)meth-oxy)pyrido[4,3-d]pyrimidin-7-yl)-2-amino-7-fluorobenzo[b]-thiophene-3-carbonitrile] as the compound, how does the half-life at 0.5 μM read?
**A.** Its half-life at 0.5 μM is over 10 min.

**Q.** With `N#Cc1c(N)sc2c(F)ccc(-c3c(Cl)cc4c(N5CC6CCC(C5)N6C(=O)Nc5ncccn5)nc(OC[C@@]56CCCN5C[C@H](F)C6)nc4c3F)c12` [Compound A215, 3-(7-(2-amino-3-cyano-7-fluorobenzo[b]thiophen-4-yl)-6-chloro-8-fluoro-2-(((2R,7aS)-2-fluorotetrahydro-1H-pyrrolizin-7a(5H)-yl)methoxy)quinazolin-4-yl)-N-(pyrimidin-2-yl)-3,8-diazabicyclo[3.2.1]octane-8-carboxamide] as the compound, how does the half-life at 0.5 μM read?
**A.** The half-life at 0.5 μM was over 10 min.

**Q.** Which half-life at 0.5 μM does the source give for `N#Cc1c(N)sc2c(F)ccc(-c3c(Cl)cc4c(N5CC6CCC(C5)N6C(=O)n5ccnc5C#N)nc(OC[C@@]56CCCN5C[C@H](F)C6)nc4c3F)c12` [Compound A220, 1-(3-(7-(2-amino-3-cyano-7-fluorobenzo[b]thiophen-4-yl)-6-chloro-8-fluoro-2-(((2R,7aS)-2-fluorotetrahydro-1H-pyrrol-izin-7a(5H)-yl)methoxy)quin-azolin-4-yl)-3,8-diazabicyclo-[3.2.1]octane-8-carbonyl)-1H-imidazole-2-carbonitrile] here?
**A.** The half-life at 0.5 μM was over 10 min.

**Q.** Which half-life at 0.5 μM does the source give for `N#Cc1ccn(C(=O)N2C3CCC2CN(c2nc(OC[C@@]45CCCN4C[C@H](F)C5)nc4c(F)c(-c5ccc(F)c6sc(N)c(C#N)c56)c(Cl)cc24)C3)n1` [Compound A224, 1-(3-(7-(2-amino-3-cyano-7-fluorobenzo[b]thiophen-4-yl)-6-chloro-8-fluoro-2-(((2R,7aS)-2-fluorotetrahydro-1H-pyrrolizin-7a(5H)-yl)methoxy)quinazolin-4-yl)-3,8-diazabicyclo[3.2.1]-octane-8-carbonyl)-1H-pyrazole-3-carbonitrile] here?
**A.** The half-life at 0.5 μM was over 10 min.

**Q.** Which half-life at 0.5 μM does the source give for `C#Cc1c(F)ccc2cc(O)cc(-c3ncc4c(N5C6COCC5CN(C(=O)n5cc(C#N)cn5)C6)nc(OC[C@@]56CCCN5C[C@H](F)C6)nc4c3F)c12` [Compound A226, 1-(9-(7-(8-ethynyl-7-fluoro-3-hydroxynaphthalen-1-yl)-8-fluoro-2-(((2R,7aS)-2-fluoro-tetrahydro-1H-pyrrolizin-7a(5H)-yl)methoxy)pyrido[4,3-d]pyrimidin-4-yl)-3-oxa-7,9-diazabicyclo[3.3.1]nonane-7-carbonyl)-1H-pyrazole-4-carbo-nitrile] here?
**A.** Its half-life at 0.5 μM is over 10 min.

**Q.** Which half-life at 0.5 μM does the source give for `C#Cc1c(F)ccc2cc(O)cc(-c3ncc4c(N5CC6CCC(C5)N6C(=O)n5cncn5)nc(OC[C@@]56CCCN5C[C@H](F)C6)nc4c3F)c12` [Compound A234, (3-(7-(8-ethynyl-7-fluoro-3-hydroxynaphthalen-1-yl)-8-fluoro-2-(((2R,7aS)-2-fluoro-tetrahydro-1H-pyrrolizin-7a(5H)-yl)methoxy)pyrido[4,3-d]pyrimidin-4-yl)-3,8-diaza-bicyclo[3.2.1]octan-8-yl)(1H-1,2,4-triazol-1-yl)methanone] here?
**A.** The half-life at 0.5 μM was over 10 min.

**Q.** With `N#Cc1cnn(C(=O)N2CC3COCC(C2)N3c2nc(OC[C@@]34CCCN3C[C@H](F)C4)nc3c(F)c(-c4ccc(F)c5sc(N)c(C#N)c45)c(Cl)cc23)c1` [Compound A249, 1-(9-(7-(2-amino-3-cyano-7-fluorobenzo[b]thiophen-4-yl)-6-chloro-8-fluoro-2-(((2R,7aS)-2-fluorotetrahydro-1H-pyrrolizin-7a(5H)-yl)methoxy)quinazolin-4-yl)-3-oxa-7,9-diazabicyclo-[3.3.1]nonane-7-carbonyl)-1H-pyrazole-4-carbonitrile] as the compound, how does the half-life at 0.5 μM read?
**A.** Its half-life at 0.5 μM is over 10 min.

**Q.** For `N#Cc1cnn(C(=O)N2C3CCC2CN(c2nc(OC[C@@]45CCCN4C[C@H](F)C5)nc4c(F)c(-c5ccc(F)c6sc(N)nc56)c(Cl)cc24)C3)c1` [Compound A253, 1-(3-(7-(2-amino-7-fluorobenzo-[d]thiazol-4-yl)-6-chloro-8-fluoro-2-(((2R,7aS)-2-fluoro-tetrahydro-1H-pyrrolizin-7a(5H)-yl)methoxy)quinazolin-4-yl)-3,8-diazabicyclo[3.2.1]-octane-8-carbonyl)-1H-pyrazole-4-carbonitrile], which half-life at 0.5 μM is on record?
**A.** Its half-life at 0.5 μM is over 10 min.

**Q.** With `N#Cc1c(N)sc2c(F)ccc(-c3c(Cl)cc4c(N5CC6CCC(C5)N6C(=O)n5cncn5)nc(OC[C@@]56CCCN5C[C@H](F)C6)nc4c3F)c12` [Compound A260, 4-(4-(8-(1H-1,2,4-triazole-1-carbonyl)-3,8-diazabicyclo-[3.2.1]octan-3-yl)-6-chloro-8-fluoro-2-(((2R,7aS)-2-fluoro-tetrahydro-1H-pyrrolizin-7a(5H)-yl)methoxy)quinazolin-7-yl)-2-amino-7-fluorobenzo-[b]thiophene-3-carbonitrile] as the compound, how does the half-life at 0.5 μM read?
**A.** The half-life at 0.5 μM was over 10 min.

**Q.** For `C#Cc1c(F)ccc2cc(O)cc(-c3ccc4c(N5CC6CCC(C5)N6C(=O)n5cncn5)nc(OC[C@@]56CCCN5C[C@H](F)C6)nc4c3F)c12` [Compound A281, (3-(7-(8-ethynyl-7-fluoro-3-hydroxynaphthalen-1-yl)-8-fluoro-2-(((2R,7aS)-2-fluoro-tetrahydro-1H-pyrrolizin-7a(5H)-yl)methoxy)quinazolin-4-yl)-3,8-diazabicyclo[3.2.1]-octan-8-yl)(1H-1,2,4-triazol-1-yl)methanone], which half-life at 0.5 μM is on record?
**A.** The half-life at 0.5 μM was over 10 min.
